Laboratory results: patent US4175081A, “5-Substituted thiadiazole ureas” (priority 1977, dated 1979)

Columns and labels:
Crabgrass (CG) [1] = experiment: Pre-emergence herbicide test; format: in vivo, Digitaria sanquinalis; settings: Digitaria sanguinalis, pre-emergence, 336 h; 8 lb/acre; two weeks after treatment
Method in brief: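 Crabgrass (Digitaria sanquinalis) was surface seeded in 3' plastic pots of potting soil, covered with screened soil, and watered by sub-irrigation in greenhouse trays. Pots were seeded one day before spraying in a hood with a moving belt and fixed nozzle. Plants stayed in the greenhouse on sub-irrigation, and pre-emergence control was rated visually two weeks after treatment.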

[2] = tested on: Yellow foxtail grass (YF); experiment: Pre-emergence herbicide test; format: in vivo, Setaria glauca; settings: Setaria, 336 h, 8 lb/acre, two weeks after treatment
Method in brief: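 Visual rating of injury/control made two weeks after a pre-emergence spray of 8 or 4 lbs active per acre (38 gal/acre) onto pots seeded the previous day. Greenhouse watering by sub-irrigation only.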

Johnson grass (JG) [3] = experiment: Pre-emergence herbicide test; format: in vivo, Sorgum helepense; settings: Sorghum halepense, 336 h, 8 lb/acre, two weeks after treatment
Method in brief: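 Visual injury or control rating two weeks post-treatment, after pre-emergence spray of 8 or 4 lbs active per acre (38 gal/acre) onto pots sown the previous day. Greenhouse watering by sub-irrigation only.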

Barnyard grass (BG) [4] = experiment: Pre-emergence herbicide test; format: in vivo; settings: Echinochloa crus-galli, 336 h, 8 lb/acre, two weeks after treatment
Method in brief: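 Greenhouse pre-emergence spray test: pots seeded one day before treatment received compound at rates of 8 or 4 lb/acre (38 gal/acre). Visual injury/control scores for Echinochloa crus-galli taken at two weeks, with watering by sub-irrigation only.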

Amaranth pigweed (PW) [5] = experiment: Pre-emergence herbicide test; format: in vivo, Amaranthus retroflexus; settings: 336 h, 8 lb/acre, two weeks after treatment
Method in brief: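 Visual injury or control ratings were made at two weeks on pre-emergence pots, sub-irrigated in the greenhouse. Seeds were sown a day before a hood spray delivering 8 lbs/acre (or 4 lbs/acre) of compound in 38 gallons per acre.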

Turnip (TP) [6] = experiment: Pre-emergence herbicide test; format: in vivo, Brassica sp.; settings: Brassica rapa, pre-emergence, 336 h; 8 lb/acre; two weeks after treatment
Method in brief: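 In this pre-emergence greenhouse test, turnip was seeded on the surface of potting soil in 3' plastic pots, lightly covered with screened soil, and watered from below. One day later the pots were sprayed in a belt-fed spray hood. Watering continued only by sub-irrigation, and percent control was visually scored two weeks after treatment.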

Cotton (CT) [7] = experiment: Pre-emergence herbicide test; format: in vivo, Gossypium hirsutum var. DPL smooth leaf; settings: Gossypium hirsutum, 336 h, 8 lb/acre, two weeks after treatment
Method in brief: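 Visual injury/control ratings were taken at two weeks post-spray. Pots seeded a day earlier received compound pre-emergence at 8 lbs/acre, or 4 lbs/acre, in a 38 gallon/acre spray volume, and were then held in the greenhouse, watered only from below.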

Corn (CN) [8] = experiment: Pre-emergence herbicide test; format: in vivo; settings: Zea mays, 336 h, 8 lb/acre, two weeks after treatment
Method in brief: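 Visual injury/control ratings were made 2 weeks post-spray on corn pots seeded (4 seeds, seed-diameter depth) the day before treatment. Application was a belt-hood spray of 38 gal/acre delivering 8 lbs active per acre, with a 4 lbs/acre rate also formulated. Watering was by sub-irrigation throughout.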

Bean (BN) [9] = experiment: Pre-emergence herbicide test; format: in vivo, Phaseolus vulgaris var. Black Valentine; settings: Phaseolus vulgaris, 336 h, 8 lb/acre, two weeks after treatment
Method in brief: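 Visual injury/control ratings were taken two weeks post-spray on sub-irrigated Phaseolus vulgaris var. Black Valentine. Pots were sown a day before treatment. Pre-emergence spray delivered 8 lbs actual compound per acre (or 4 lbs/acre) at 38 gallons per acre.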

Crabgrass (CG) [10] = experiment: Post-emergence herbicide test; format: in vivo, Digitaria sanquinalis; settings: Digitaria sanguinalis, post-emergence, 336 h; 8 lb/acre; two weeks after treatment
Method in brief: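 Crabgrass (Digitaria sanquinalis) was surface seeded individually in 3' plastic pots of potting soil, covered with screened soil, and watered by sub-irrigation in greenhouse trays. Planting was staggered so seedlings reached the target stage together. Post-emergence sprays were applied in a hood with a removable belt and fixed nozzle, and control was visually rated two weeks after treatment.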

[11] = tested on: Yellow foxtail grass (YF); experiment: Post-emergence herbicide test; format: in vivo, Setaria glauca; settings: Setaria, 336 h, 8 lb/acre, two weeks after treatment
Method in brief: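 Visual rating of injury/control made 2 weeks post-spray. Seedlings at a uniform growth stage in soil-filled pots received a hood spray of 8 lbs/acre active compound, 38 gallons/acre volume, with a 4 lbs/acre rate also formulated. Watering was by sub-irrigation only.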

Johnson grass (JG) [12] = experiment: Post-emergence herbicide test; format: in vivo, Sorgum helepense; settings: Sorghum halepense, 336 h, 8 lb/acre, two weeks after treatment
Method in brief: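 Visual injury or control scores taken 2 weeks after a post-emergence spray of pot-grown plants. Application was 8 lbs/acre (or 4 lbs/acre) in 38 gal/acre. Plants were held in the greenhouse with sub-irrigation only.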

Barnyard grass (BG) [13] = experiment: Post-emergence herbicide test; format: in vivo; settings: Echinochloa crus-galli, 336 h, 8 lb/acre, two weeks after treatment
Method in brief: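 Greenhouse pot-grown barnyard grass seedlings sprayed post-emergence at 8 lbs active compound per acre (some at 4 lbs/acre) in 38 gallons per acre, then sub-irrigated. Injury or control rated visually two weeks after treatment.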

Amaranth pigweed (PW) [14] = experiment: Post-emergence herbicide test; format: in vivo, Amaranthus retroflexus; settings: 336 h, 8 lb/acre, two weeks after treatment
Method in brief: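 Visual injury or control ratings were made two weeks after spraying, with greenhouse watering by sub-irrigation only. Treatment was post-emergence, when pigweed seedlings had 1 or 2 true leaves, at 8 lbs active compound per acre (4 lbs/acre formulations also made) in a 38 gallons-per-acre spray volume.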

Turnip (TP) [15] = experiment: Post-emergence herbicide test; format: in vivo, Brassica sp.; settings: Brassica rapa, post-emergence, 336 h; 8 lb/acre; two weeks after treatment
Method in brief: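 A greenhouse post-emergence herbicide test on turnip. Seeds were sown on the surface of potting soil in 3' plastic pots, lightly covered with screened soil and watered from below. Planting was timed so seedlings had 1 or 2 true leaves above the cotyledons at spraying, done in a hood with a fixed nozzle. Control or injury was scored by eye after two weeks.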

Cotton (CT) [16] = experiment: Post-emergence herbicide test; format: in vivo, Gossypium hirsutum var. DPL smooth leaf; settings: Gossypium hirsutum, post-emergence, 336 h; 8 lb/acre; two weeks after treatment
Method in brief: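 This greenhouse post-emergence test measured how well spray treatments controlled cotton. Seedlings of Gossypium hirsutum var. DPL smooth leaf, with expanded cotyledons and a first true leaf 1' in length, were sprayed with 50 ml formulations in a belt-fed spray hood. They were then returned to the greenhouse and watered only by sub-irrigation. Injury was scored visually as % control after two weeks.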

Corn (CN) [17] = experiment: Post-emergence herbicide test; format: in vivo; settings: Zea mays, 336 h, 8 lb/acre, two weeks after treatment
Method in brief: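 Greenhouse seedlings grown in potting soil and sprayed post-emergence at 8 lbs compound/acre (formulations also made for 4 lbs/acre) in 38 gallons/acre spray volume. Watering by sub-irrigation only. Injury or control rated visually two weeks after treatment.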

Bean (BN) [18] = experiment: Post-emergence herbicide test; format: in vivo, Phaseolus vulgaris var. Black Valentine; settings: Phaseolus vulgaris, post-emergence, 336 h; 8 lb/acre; two weeks after treatment
Method in brief: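 Bean seedlings (Phaseolus vulgaris var. Black Valentine) were grown in potting soil in 3' pots until the primary leaves expanded. They were then sprayed under a hood with a removable belt and fixed nozzle, using 50 ml formulations. Afterward they were returned to the greenhouse and watered only by sub-irrigation. Percent control was judged visually two weeks after treatment.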

[19] = tested on: variety of crops and weed species; experiment: Pre- and post-emergence herbicide tests, overall assessment of Tables III-VI; format: in vivo; settings: data of Tables III-VI
Method in brief: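 Crops and weeds grown in potting soil were sprayed at 8 lbs. compound per acre in 38 gallons per acre, pre-emergence pots seeded one day before treatment. Injury or control was visually rated two weeks after treatment.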

## C=CCNC(=O)Nc1nnc(C(F)(F)F)s1 [Example 12]
Crabgrass (CG) [1]
  pest or weed control at 8966.8 g/ha: 20%
[2]
  pest or weed control at 8966.8 g/ha: 10%
Johnson grass (JG) [3]
  pest or weed control at 8966.8 g/ha: 10%
Barnyard grass (BG) [4]
  pest or weed control at 8966.8 g/ha: 10%
Amaranth pigweed (PW) [5]
  pest or weed control at 8966.8 g/ha: 10%
Turnip (TP) [6]
  pest or weed control at 8966.8 g/ha: 10%
Cotton (CT) [7]
  pest or weed control at 8966.8 g/ha: 30%
Corn (CN) [8]
  pest or weed control at 8966.8 g/ha: 10%
Bean (BN) [9]
  pest or weed control at 8966.8 g/ha: 10%
Crabgrass (CG) [10]
  pest or weed control at 8966.8 g/ha: 50%
[11]
  pest or weed control at 8966.8 g/ha: 40%
Johnson grass (JG) [12]
  pest or weed control at 8966.8 g/ha: 40%
Barnyard grass (BG) [13]
  pest or weed control at 8966.8 g/ha: 50%
Amaranth pigweed (PW) [14]
  pest or weed control at 8966.8 g/ha: 70%
Turnip (TP) [15]
  pest or weed control at 8966.8 g/ha: 70%
Cotton (CT) [16]
  pest or weed control at 8966.8 g/ha: 90%
Corn (CN) [17]
  pest or weed control at 8966.8 g/ha: 40%
Bean (BN) [18]
  pest or weed control at 8966.8 g/ha: 100%
[19]
  herbicidal effectiveness / selectivity, in words: control post-emergence growth, while have little effect in regard to pre-emergence

## CNC(=O)Nc1nnc(COC)s1 [Example 25]
Crabgrass (CG) [1]
  pest or weed control at 8966.8 g/ha: 20%
[2]
  pest or weed control at 8966.8 g/ha: 10%
Johnson grass (JG) [3]
  pest or weed control at 8966.8 g/ha: 10%
Barnyard grass (BG) [4]
  pest or weed control at 8966.8 g/ha: 10%
Amaranth pigweed (PW) [5]
  pest or weed control at 8966.8 g/ha: 10%
Turnip (TP) [6]
  pest or weed control at 8966.8 g/ha: 10%
Cotton (CT) [7]
  pest or weed control at 8966.8 g/ha: 100%
Corn (CN) [8]
  pest or weed control at 8966.8 g/ha: 10%
Bean (BN) [9]
  pest or weed control at 8966.8 g/ha: 70%
Crabgrass (CG) [10]
  pest or weed control at 8966.8 g/ha: 30%
[11]
  pest or weed control at 8966.8 g/ha: 20%
Johnson grass (JG) [12]
  pest or weed control at 8966.8 g/ha: 30%
Barnyard grass (BG) [13]
  pest or weed control at 8966.8 g/ha: 20%
Amaranth pigweed (PW) [14]
  pest or weed control at 8966.8 g/ha: 40%
Turnip (TP) [15]
  pest or weed control at 8966.8 g/ha: 30%
Cotton (CT) [16]
  pest or weed control at 8966.8 g/ha: 100%
Corn (CN) [17]
  pest or weed control at 8966.8 g/ha: 30%
Bean (BN) [18]
  pest or weed control at 8966.8 g/ha: 100%
[19]
  herbicidal effectiveness / selectivity, in words: more selective when applied to a certain crop or weed species

## CNC(=O)Nc1nncs1 [Example 35]
Crabgrass (CG) [1]
  pest or weed control at 8966.8 g/ha: 10%
[2]
  pest or weed control at 8966.8 g/ha: 10%
Johnson grass (JG) [3]
  pest or weed control at 8966.8 g/ha: 10%
Barnyard grass (BG) [4]
  pest or weed control at 8966.8 g/ha: 10%
Amaranth pigweed (PW) [5]
  pest or weed control at 8966.8 g/ha: 10%
Turnip (TP) [6]
  pest or weed control at 8966.8 g/ha: 10%
Cotton (CT) [7]
  pest or weed control at 8966.8 g/ha: 100%
Corn (CN) [8]
  pest or weed control at 8966.8 g/ha: 10%
Bean (BN) [9]
  pest or weed control at 8966.8 g/ha: 60%
Crabgrass (CG) [10]
  pest or weed control at 8966.8 g/ha: 10%
[11]
  pest or weed control at 8966.8 g/ha: 10%
Johnson grass (JG) [12]
  pest or weed control at 8966.8 g/ha: 10%
Barnyard grass (BG) [13]
  pest or weed control at 8966.8 g/ha: 10%
Amaranth pigweed (PW) [14]
  pest or weed control at 8966.8 g/ha: 100%
Turnip (TP) [15]
  pest or weed control at 8966.8 g/ha: 20%
Cotton (CT) [16]
  pest or weed control at 8966.8 g/ha: 50%
Corn (CN) [17]
  pest or weed control at 8966.8 g/ha: 10%
Bean (BN) [18]
  pest or weed control at 8966.8 g/ha: 30%
[19]
  herbicidal effectiveness / selectivity, in words: more selective when applied to a certain crop or weed species
